Measured values reported in ChEMBL document CHEMBL5465560, “Selectivity Literature for EUbOPEN Chemogenomic Library” (2024).
Positions count from the first letter of the chain named.

Columns and labels:
Settings in all cases: at 1 µM
[1] = test system: T1, Receptor-type tyrosine-protein kinase FLT3 (Homo sapiens), P36888 [D835H]; assay: (§1) Selectivity interaction (KinomeScan (DiscoverX)) EUB0000229b FLT3
T1 sequence (whole entry): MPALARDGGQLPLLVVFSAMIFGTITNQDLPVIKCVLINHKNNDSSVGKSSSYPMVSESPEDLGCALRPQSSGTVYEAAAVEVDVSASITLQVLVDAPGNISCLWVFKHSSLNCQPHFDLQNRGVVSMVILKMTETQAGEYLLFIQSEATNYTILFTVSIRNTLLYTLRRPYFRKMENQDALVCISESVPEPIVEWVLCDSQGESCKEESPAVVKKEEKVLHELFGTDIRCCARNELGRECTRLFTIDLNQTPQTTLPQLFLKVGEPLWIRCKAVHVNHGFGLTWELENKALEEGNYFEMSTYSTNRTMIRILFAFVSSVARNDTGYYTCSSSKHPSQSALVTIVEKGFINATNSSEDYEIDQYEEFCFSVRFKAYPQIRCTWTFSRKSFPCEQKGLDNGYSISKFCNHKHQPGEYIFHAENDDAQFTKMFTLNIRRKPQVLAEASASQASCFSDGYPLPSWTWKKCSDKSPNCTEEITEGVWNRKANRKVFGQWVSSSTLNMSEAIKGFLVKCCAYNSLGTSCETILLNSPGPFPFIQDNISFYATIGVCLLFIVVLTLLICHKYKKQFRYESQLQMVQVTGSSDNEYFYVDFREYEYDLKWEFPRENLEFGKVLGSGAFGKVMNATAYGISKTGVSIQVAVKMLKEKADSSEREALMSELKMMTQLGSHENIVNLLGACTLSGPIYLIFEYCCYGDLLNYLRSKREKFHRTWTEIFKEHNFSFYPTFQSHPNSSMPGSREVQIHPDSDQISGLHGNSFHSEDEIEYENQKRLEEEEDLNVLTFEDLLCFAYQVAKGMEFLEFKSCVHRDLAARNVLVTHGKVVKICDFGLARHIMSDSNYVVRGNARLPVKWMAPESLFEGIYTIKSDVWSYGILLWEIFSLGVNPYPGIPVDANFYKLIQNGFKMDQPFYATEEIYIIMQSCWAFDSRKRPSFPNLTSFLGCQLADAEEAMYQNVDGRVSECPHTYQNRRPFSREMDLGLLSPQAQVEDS

[2] = test system: T2, Receptor-type tyrosine-protein kinase FLT3 (Homo sapiens), P36888 [K663Q]; assay: as §1
T2 sequence (whole entry): T1 sequence (whole entry) with K663Q, H835D

[3] = test system: T3, Receptor-type tyrosine-protein kinase FLT3 (Homo sapiens), P36888 [N841I]; assay: as §1
T3 sequence (whole entry): T1 sequence (whole entry) with H835D, N841I

[4] = test system: Receptor-type tyrosine-protein kinase FLT3 (Homo sapiens), P36888 [UNDEFINED MUTATION]; assay: as §1

**Q.** Which results are given for COc1cc(N(C)c2ccnc3ccc(C(F)(F)F)cc23)cc(OC)c1OC?
**A.** % binding [1]: 90%; % binding [2]: 76%; % binding [3]: 84%; % binding [4]: 54%
